The record followed here is ChEMBL document CHEMBL5725665, “Pyrazolopyridines and pyrazolopyrimidines” (2018).

As usually defined, the IC50 is the midpoint of a concentration-inhibition curve.

Test [1] deals with Non-receptor tyrosine-protein kinase TYK2 (Homo sapiens, UniProt P29597). Kind of test: (§1) JAK Caliper Enzyme Assay at 1 mM ATP: Test article was solubilized in dimethyl sulfoxide (DMSO) to a stock concentration of 30 mM. An 11-point half log dilution series was created in DMSO with a top concentration of 600 μM. […] The compound plates were diluted 1 to 60 resulting in a top final assay compound concentration of 10 μM and a 2% DMSO concentration.Test article and assay controls were added to a 384-well plate. Reaction mixtures contained 20 mM HEPES, pH 7.4, 10 mM magnesium chloride, 0.01% bovine serum albumin (BSA), 0.0005% Tween 20, 1 mM ATP and 1 μM peptide substrate. The JAK1 and TYK2 assays contained 1 μM of the IRStide peptide (5FAM-[…]) and the JAK2 and JAK3 assays contained 1 μM of the JAKtide peptide (FITC-[…]). […] Enzyme concentrations and incubation times were optimized for each new enzyme preps and were modified slightly over time to ensure 20%-30% phosphorylation. The assays were stopped with a final concentration of 10 mM EDTA, 0.1% Coating Reagent and 100 mM HEPES, pH=7.4. The assay plates were placed on a Caliper Life Science Lab Chip 3000 (LC3000) instrument, and each well was sampled using appropriate separation conditions to measure the unphosphorylated and phosphorylated peptide.
Chain of Non-receptor tyrosine-protein kinase TYK2 (P29597 whole entry): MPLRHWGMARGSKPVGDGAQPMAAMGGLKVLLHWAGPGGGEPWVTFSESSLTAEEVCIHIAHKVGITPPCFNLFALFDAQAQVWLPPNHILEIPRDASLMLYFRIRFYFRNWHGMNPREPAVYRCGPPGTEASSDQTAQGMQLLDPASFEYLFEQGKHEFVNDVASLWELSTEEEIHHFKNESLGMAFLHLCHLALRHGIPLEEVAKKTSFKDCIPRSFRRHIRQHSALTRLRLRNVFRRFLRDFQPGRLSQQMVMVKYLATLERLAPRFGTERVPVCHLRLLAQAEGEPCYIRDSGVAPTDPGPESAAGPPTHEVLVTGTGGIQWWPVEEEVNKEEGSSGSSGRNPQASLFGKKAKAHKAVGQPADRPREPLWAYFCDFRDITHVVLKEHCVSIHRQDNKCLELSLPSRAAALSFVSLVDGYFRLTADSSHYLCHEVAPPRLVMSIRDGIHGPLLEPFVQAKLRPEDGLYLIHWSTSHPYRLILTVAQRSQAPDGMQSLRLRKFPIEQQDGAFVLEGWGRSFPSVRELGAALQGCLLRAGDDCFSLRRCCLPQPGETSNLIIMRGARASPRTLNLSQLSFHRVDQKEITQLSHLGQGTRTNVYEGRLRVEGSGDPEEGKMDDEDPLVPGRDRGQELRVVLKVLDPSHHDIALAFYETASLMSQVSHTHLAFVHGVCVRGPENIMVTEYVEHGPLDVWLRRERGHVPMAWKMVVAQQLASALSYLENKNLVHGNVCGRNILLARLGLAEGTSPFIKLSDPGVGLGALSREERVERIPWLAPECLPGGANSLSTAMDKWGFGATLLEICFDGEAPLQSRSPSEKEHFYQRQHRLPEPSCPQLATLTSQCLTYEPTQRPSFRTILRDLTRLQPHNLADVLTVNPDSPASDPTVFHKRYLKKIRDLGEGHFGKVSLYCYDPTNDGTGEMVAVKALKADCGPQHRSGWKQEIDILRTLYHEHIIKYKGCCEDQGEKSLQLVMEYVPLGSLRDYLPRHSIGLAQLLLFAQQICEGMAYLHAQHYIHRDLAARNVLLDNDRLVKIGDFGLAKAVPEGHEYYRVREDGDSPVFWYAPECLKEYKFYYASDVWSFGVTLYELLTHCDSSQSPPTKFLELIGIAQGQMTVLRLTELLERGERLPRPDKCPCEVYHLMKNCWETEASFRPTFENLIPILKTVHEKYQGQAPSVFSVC

Test [2] deals with Tyrosine-protein kinase JAK1 (Homo sapiens, UniProt P23458). The description is as §1.
Chain of Tyrosine-protein kinase JAK1 (P23458 whole entry): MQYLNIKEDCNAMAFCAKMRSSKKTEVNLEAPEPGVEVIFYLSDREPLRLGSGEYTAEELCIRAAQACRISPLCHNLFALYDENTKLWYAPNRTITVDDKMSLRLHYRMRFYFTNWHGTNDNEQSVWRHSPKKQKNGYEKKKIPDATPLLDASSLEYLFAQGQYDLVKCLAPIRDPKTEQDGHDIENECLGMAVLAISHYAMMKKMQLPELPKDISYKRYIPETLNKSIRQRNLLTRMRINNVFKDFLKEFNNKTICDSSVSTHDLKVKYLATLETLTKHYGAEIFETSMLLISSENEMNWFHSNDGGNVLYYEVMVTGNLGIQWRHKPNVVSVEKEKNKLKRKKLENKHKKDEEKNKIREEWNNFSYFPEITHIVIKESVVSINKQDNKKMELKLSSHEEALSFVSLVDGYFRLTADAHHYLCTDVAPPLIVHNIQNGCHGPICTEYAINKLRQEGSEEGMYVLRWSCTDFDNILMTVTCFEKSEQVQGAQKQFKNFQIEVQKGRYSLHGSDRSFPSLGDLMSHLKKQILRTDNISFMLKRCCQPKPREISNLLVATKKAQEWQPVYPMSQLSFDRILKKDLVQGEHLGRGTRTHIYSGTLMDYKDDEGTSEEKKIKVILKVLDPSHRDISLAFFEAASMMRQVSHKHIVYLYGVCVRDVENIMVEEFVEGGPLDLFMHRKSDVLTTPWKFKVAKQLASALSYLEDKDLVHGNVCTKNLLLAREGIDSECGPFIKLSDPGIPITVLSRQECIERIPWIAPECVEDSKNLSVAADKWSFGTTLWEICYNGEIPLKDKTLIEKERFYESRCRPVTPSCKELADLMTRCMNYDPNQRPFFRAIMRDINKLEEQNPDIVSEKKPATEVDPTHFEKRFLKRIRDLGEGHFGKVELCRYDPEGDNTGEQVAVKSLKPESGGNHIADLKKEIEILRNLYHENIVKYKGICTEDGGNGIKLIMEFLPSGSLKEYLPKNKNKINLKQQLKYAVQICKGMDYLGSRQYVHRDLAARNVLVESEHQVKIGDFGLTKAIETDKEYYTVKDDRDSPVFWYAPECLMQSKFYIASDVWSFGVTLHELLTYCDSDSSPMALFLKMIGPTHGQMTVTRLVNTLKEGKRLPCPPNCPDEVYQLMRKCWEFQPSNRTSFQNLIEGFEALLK
Test [3] concerns the target T1, Tyrosine-protein kinase JAK3 (Homo sapiens, UniProt P52333).
T1 sequence (P52333 whole entry): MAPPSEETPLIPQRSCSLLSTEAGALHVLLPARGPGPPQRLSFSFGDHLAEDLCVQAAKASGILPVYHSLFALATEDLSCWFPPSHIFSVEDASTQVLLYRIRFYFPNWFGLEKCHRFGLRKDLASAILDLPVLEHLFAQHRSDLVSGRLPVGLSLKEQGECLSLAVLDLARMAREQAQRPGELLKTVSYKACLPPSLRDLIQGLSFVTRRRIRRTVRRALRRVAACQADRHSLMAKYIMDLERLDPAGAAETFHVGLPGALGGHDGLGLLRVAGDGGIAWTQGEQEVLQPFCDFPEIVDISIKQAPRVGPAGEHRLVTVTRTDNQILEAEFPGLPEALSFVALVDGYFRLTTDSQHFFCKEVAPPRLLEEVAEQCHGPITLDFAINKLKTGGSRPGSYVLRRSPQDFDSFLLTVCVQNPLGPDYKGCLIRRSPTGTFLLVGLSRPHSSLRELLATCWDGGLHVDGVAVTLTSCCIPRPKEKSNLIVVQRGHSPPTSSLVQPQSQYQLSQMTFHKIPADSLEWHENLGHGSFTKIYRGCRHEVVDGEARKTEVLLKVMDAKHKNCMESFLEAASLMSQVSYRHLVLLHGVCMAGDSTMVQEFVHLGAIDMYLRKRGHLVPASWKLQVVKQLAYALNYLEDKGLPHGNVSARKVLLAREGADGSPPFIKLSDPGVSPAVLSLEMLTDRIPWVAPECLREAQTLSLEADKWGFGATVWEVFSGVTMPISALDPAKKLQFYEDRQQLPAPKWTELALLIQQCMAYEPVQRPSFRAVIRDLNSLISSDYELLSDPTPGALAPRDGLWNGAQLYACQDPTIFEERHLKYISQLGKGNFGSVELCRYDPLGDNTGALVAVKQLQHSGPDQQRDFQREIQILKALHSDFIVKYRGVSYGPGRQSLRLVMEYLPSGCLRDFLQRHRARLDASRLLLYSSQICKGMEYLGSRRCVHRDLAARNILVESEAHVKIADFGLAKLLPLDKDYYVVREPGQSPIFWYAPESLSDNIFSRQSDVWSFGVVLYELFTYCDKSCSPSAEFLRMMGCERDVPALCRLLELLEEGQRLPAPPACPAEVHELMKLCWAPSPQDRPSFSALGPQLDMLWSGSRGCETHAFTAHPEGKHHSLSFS
The description is as §1.

The target in test [4] is Tyrosine-protein kinase JAK2 (Homo sapiens, UniProt O60674). Kind of test: JAK Caliper Enzyme Assay at 1 mM ATP: Test article was solubilized in dimethyl sulfoxide (DMSO) to a stock concentration of 30 mM. An 11-point half log dilution series was created in DMSO with a top concentration of 600 μM. […] The compound plates were diluted 1 to 60 resulting in a top final assay compound concentration of 10 μM and a 2% DMSO concentration.Test article and assay controls were added to a 384-well plate. Reaction mixtures contained 20 mM HEPES, pH 7.4, 10 mM magnesium chloride, 0.01% bovine serum albumin (BSA), 0.0005% Tween 20, 1 mM ATP and 1 μM peptide substrate. […] Enzyme concentrations and incubation times were optimized for each new enzyme preps and were modified slightly over time to ensure 20%-30% phosphorylation. The assays were stopped with a final concentration of 10 mM EDTA, 0.1% Coating Reagent and 100 mM HEPES, pH=7.4. The assay plates were placed on a Caliper Life Science Lab Chip 3000 (LC3000) instrument, and each well was sampled using appropriate separation conditions to measure the unphosphorylated and phosphorylated peptide.
Chain of Tyrosine-protein kinase JAK2 (O60674 whole entry): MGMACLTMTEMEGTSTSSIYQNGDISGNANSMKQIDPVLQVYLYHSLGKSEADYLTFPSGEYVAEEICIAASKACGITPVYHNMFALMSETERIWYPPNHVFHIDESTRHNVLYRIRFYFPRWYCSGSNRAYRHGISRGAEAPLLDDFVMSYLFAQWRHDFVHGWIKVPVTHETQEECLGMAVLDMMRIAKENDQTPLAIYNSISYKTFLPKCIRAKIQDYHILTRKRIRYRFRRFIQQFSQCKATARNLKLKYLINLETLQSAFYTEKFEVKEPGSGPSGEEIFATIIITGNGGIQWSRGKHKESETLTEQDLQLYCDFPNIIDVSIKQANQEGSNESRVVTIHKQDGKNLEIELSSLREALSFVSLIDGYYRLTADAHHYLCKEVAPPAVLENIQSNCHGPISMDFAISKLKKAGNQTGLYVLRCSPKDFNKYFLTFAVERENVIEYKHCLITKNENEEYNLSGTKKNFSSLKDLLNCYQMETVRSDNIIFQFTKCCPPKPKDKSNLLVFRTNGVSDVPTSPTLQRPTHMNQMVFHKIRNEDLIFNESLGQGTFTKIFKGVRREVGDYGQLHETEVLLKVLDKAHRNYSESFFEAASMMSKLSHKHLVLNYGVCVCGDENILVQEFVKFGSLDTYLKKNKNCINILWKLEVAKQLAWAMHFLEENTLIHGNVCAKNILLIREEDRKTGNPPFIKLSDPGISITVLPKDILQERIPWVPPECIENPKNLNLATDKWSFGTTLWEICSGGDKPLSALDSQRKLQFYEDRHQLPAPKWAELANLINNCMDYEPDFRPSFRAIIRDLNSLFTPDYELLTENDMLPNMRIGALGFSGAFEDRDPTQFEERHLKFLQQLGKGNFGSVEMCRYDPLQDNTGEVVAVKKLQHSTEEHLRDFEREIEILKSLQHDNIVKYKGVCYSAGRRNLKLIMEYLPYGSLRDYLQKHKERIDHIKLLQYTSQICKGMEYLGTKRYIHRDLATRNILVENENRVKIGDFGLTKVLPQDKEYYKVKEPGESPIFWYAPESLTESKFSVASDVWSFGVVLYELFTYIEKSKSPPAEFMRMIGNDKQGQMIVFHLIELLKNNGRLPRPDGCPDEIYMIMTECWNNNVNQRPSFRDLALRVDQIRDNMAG

Regarding `CN(c1ccc(O)cc1CNc1nc(-c2cc(F)c(O)cc2CC(F)(F)F)nc2[nH]nc(-c3nc4c([nH]3)CCNC4)c12)S(C)(=O)=O`, the IC50 in test [1] was found to be 68.6 nM; in test [2], 5.6 nM; in test [3], 111 nM; in test [4], 35.3 nM.
For `CS(=O)(=O)N(CCO)c1ccccc1CNc1nc(-c2cc(F)c(O)cc2CC(F)(F)F)cc2[nH]nc(C(N)=O)c12`, in that order: 48.8 nM, 2.9 nM, 53.5 nM and 14.7 nM.
For the molecule `CCc1cc(O)ccc1-c1cc2[nH]ncc2c(N2CC(Oc3ccccc3)C2)n1`, the 50% inhibitory concentration (IC50) in test [1] is 5170 nM; in test [2], 12.1 nM; in test [3] it was 67.5 nM; in test [4], 82.9 nM.
For the molecule `Cc1nnc(-c2n[nH]c3cc(-c4cc(F)c(O)cc4CC(F)(F)F)nc(NCc4ccccc4N(C)S(C)(=O)=O)c23)[nH]1`, the IC50 in test [1] was determined as 150 nM; in test [2], 27.5 nM; in test [3], 429 nM; in test [4], 129 nM.
With `CCc1cc(O)ccc1-c1cc2[nH]ncc2c(NCCc2ccc(-c3ccccc3)cc2)n1`, the concentration for half-maximal inhibition (IC50) in test [1] came to 4230 nM; in test [2], 87.6 nM; in test [3] it was 157 nM; in test [4], 183 nM.
For `CN(c1ccc(O)cc1CNc1nc(-c2cc(F)c(O)cc2CC(F)(F)F)nc2[nH]nc(C(N)=O)c12)S(C)(=O)=O`, in that order: 373 nM, 3.2 nM, 38 nM and 12.7 nM.
For the molecule `CN(c1ccccc1CNc1nc(-c2cc(F)c(O)cc2CC(F)(F)F)nc2[nH]nc(-c3nnc(C4CCN(C(=O)CN5CCCC5)CC4)[nH]3)c12)S(C)(=O)=O`, the IC50 came to 2260 nM in test [1], 16.8 nM in test [2], 158 nM in test [3] and 54.3 nM in test [4].
